This data set concerns the target T1, Amine oxidase [flavin-containing] B (Homo sapiens, UniProt P27338).
T1 sequence (P27338 whole entry): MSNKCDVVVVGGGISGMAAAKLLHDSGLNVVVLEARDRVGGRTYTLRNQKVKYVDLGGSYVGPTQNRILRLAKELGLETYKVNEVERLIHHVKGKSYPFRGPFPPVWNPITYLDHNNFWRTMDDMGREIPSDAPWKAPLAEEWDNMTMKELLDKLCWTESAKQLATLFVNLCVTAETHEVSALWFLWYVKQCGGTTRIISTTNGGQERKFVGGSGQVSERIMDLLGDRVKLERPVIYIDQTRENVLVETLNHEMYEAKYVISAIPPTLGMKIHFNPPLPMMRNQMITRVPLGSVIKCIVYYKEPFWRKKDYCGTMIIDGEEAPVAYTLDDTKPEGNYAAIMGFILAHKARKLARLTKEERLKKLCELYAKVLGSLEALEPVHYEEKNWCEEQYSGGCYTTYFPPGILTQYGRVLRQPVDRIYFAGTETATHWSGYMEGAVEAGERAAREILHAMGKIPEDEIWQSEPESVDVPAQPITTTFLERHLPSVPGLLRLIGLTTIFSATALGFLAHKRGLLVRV
The data set can be described thus: Activity of 50 nM human recombinant MAOB after 30 mins. The settings on record: 0.5 h.

For two molecules, Vmax results are on record in ChEMBL document CHEMBL1142441, “Stereochemical studies on the novel monoamine oxidase B substrates (1R,6S)- and (1S,6R)-3-methyl-6-phenyl-3-aza-bicyclo[4.1.0]heptane” (Bioorg Med Chem, 2008).

In the case of `CN1CC[C@@]2(c3ccccc3)C[C@H]2C1`, the Vmax was determined as 135 nmol.
For `CN1CC[C@]2(c3ccccc3)C[C@@H]2C1`, the Vmax came to 135 nmol.
